US20250108038A1 (priority 2023, published 2025)
Several values for one entry are separate records, joined by “and”; a condition that tells them apart may be missing. Equal values may be shown once. Read-outs that look alike come from different tables or passages of the source.

Legend:
[1] = Stability in beagle dog plasma
Procedure: Pooled (N≥3) male SD rat, beagle dog and mixed gender human plasma with EDTA-K2 as anticoagulant were purchased from BioIVT (NY, USA) and stored in a −70° C. freezer before use.
Incubations were conducted in 96-well plate format. The time points defined for this study are 0, 5, 15, 30 and 60 minutes.
For positive controls, the rat plasma was spiked with enalapril, the dog plasma spiked with bisacodyl and the human plasma was spiked with propantheline. All spiked plasma sample plates were incubated in a water bath at 37° C. with shaking.
At end of each time point, samples were immediately quenched with three volume of cold quenching solution. All sample plates were mixed thoroughly by shaking for approximately 10 minutes and centrifuged at 3220×g for 15 minutes. Subsequently, 100 μL of supernatant was removed from each well, mixed with 100 μL water in a new 96-well plate and subjected to LC-MS/MS analysis.
Concentrations of test article, metabolite, and control compounds in the samples were analyzed by LC-MS/MS semi-quantitatively. […] The peak area ratios of analyte/internal standard were used to semi-quantitatively determine the concentrations.
The peak area ratios (PAR) of analyte/internal standard were used to semi-quantitatively determine the concentration of test article and control compounds, and calculate the percent remaining with the following equation:
The elimination rate (ke) was calculated from a log linear plot of % remaining versus time. The half-life was calculated using the following equation:

[2] = physchem; settings: kinetic from dmso stock
[3] = Plasma and brain concentrations after 3 mg/kg i.p. in male CD-1 mice; settings: for fu* Cmax: fu by equilibrium dialysis after 6 h
Procedure: Following dosing, three animals were sacrificed per time-point for the collection of terminal plasma and brain. […] Pharmacokinetics (PK) parameters for plasma and whole brain were estimated from the mean plasma and brain concentration versus time profiles.
The animals will be acclimatized to their new environment for a minimum of 5 days prior to study start.
Any unused dosing solutions will be stored at approximately −80° C. until transferred on dry ice to the bioanalytical facility.
The animals will be dosed intra-peritoneally (i.p.) into the lower right quadrant of the abdomen using a 0.5 mL Tuberculin syringe with attached needle 27 G×[…].
Whole blood will be collected via cardiac puncture under isoflurane anesthesia from three mice at each time-point at the collection times outlined in Table 2. Up to 0.8 mL of blood will be collected into 0.8 mL mini-collect K2EDTA coated tubes. Blood tubes will be centrifuged at 3200×g for 5 min. at 4° C. and plasma transferred into 1.5 mL flip top tubes. One vial of plasma for each collection time point will stored at approximately […] until transferred on dry ice to the bioanalytical facility.
Following cardiac puncture, mice will be perfused with 12 mL of ice-cold PBS via the left ventricle. Brains will then be excised, blotted and placed into pre-weighed 5 mL self standing green top sample tubes. Tubes containing brains will be re-weighed and then snap frozen in liquid nitrogen. Brain samples will be stored frozen at approximately −80° C. until transferred on dry ice to the bioanalytical facility.

[4] = target: T1, CYP2B6 (Homo sapiens, UniProt P20813)
T1 sequence (P20813 1-491): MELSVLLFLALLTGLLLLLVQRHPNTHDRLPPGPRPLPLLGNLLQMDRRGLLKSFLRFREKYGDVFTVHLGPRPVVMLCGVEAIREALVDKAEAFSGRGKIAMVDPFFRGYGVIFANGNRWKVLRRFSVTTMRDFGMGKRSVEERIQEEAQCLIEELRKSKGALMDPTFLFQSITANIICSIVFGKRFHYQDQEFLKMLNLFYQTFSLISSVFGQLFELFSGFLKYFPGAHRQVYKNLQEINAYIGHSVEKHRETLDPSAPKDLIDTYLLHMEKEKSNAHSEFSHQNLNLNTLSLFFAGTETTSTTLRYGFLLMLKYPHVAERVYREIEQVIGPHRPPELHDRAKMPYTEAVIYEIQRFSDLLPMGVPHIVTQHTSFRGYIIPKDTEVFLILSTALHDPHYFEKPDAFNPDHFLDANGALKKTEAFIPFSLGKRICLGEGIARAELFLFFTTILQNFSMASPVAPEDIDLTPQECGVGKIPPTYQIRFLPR

[5] = Stability in components of human blood; type: in vitro ADME; settings: 0.5 mM, 37° C., 0-120 min
Procedure: FIG. 3A. […] Compound I-19 in components of human blood. Red blood cells and plasma were isolated from whole blood. […] Values represent mean+SEM of n=3 separate experiments.
FIG. 3B. Stability of Compound I-4 in components of human blood. Red blood cells and plasma were isolated from whole blood. […] Values represent mean+SEM of n=3 separate experiments.
Human and rat blood were centrifuged to separate out red blood cells at 1174×g for 15 min. The upper plasma level was aspirated with a micropipette and placed in a bleach solution for disposal. The RBC pellet was resuspended in sterile isotonic saline. The pellet was gently resuspended by rocking the tube. The sample was then centrifuged again to collect the RBC pellet and then resuspended and washed one more time following the same procedure. A total of three was done. Following the last wash and centrifugation, the RBCs were resuspended with PBS; and mixed by inversion. Aliquots of the resuspended and washed RBCs were then placed into 4 reaction tubes. These tubes were centrifuged to collect the RBCs. The fluid level was marked on each tube, then the supernatant was aspirated off and the cells resuspended with room temperature PBS pH 7.4 to the original mark. An aliquot of the RBC suspension was added to four sterile tubes containing PBS pH 7.4 at room temperature. […]

[6] = 3 mg/kg i.p. Compound I-19, male CD-1 mice
[7] = after 3 mg/kg i.p. Compound I-19
[8] = after 3 mg/kg i.p. Compound I-19, below the lower levels of quantitation
[9] = brain, 3 mg/kg i.p. Compound I-19, male CD-1 mice
[10] = plasma, 3 mg/kg i.p. Compound I-19, male CD-1 mice

SMILES: COCCOC1(c2ccc(Cl)cc2)c2ccccc2C2=NCCN21 (stereo not shown) [Compound I-4]
- Compound A formed (Aa/Ai) ([1]; 0 min): 0.48
- % Remaining ([1]; 2.0 μM, 0 min): 100%
- Aa/Ai Mean (N = 2) ([1]; 2.0 μM, 0 min): 2.24
- % Remaining ([1]; 2.0 μM, 5 min): 93.5%
- Aa/Ai Mean (N = 2) ([1]; 2.0 μM, 5 min): 2.10
- % Remaining ([1]; 2.0 μM, 15 min): 92.0%
- Aa/Ai Mean (N = 2) ([1]; 2.0 μM, 15 min): 2.07
- % Remaining ([1]; 2.0 μM, 30 min): 89.2%
- Aa/Ai Mean (N = 2) ([1]; 2.0 μM, 30 min): 2.00
- % Remaining ([1]; 2.0 μM, 60 min): 83.7%
- Aa/Ai Mean (N = 2) ([1]; 2.0 μM, 60 min): 1.88
- T1/2 ([1]; 2.0 μM, 60 min incubation): >187 min
- Compound A formed (Aa/Ai) ([1]; 5 min): 0.46
- Compound A formed (Aa/Ai) ([1]; 15 min): 0.46
- Compound A formed (Aa/Ai) ([1]; 30 min): 0.42
- Compound A formed (Aa/Ai) ([1]; 60 min): 0.39

SMILES: OC1(c2ccc(Cl)cc2)c2ccccc2C2=NCCN21 (stereo not shown) [Compound A, 5-(4-chlorophenyl)-2,3-dihydroimidazo[1,2-b]isoindol-5-ol, reference compound]
- solubility kinetic ([2]; 32 °C, pH 7.4, aqueous buffer, transport buffer with sucrose for BCRP and MDR1 (pH 7.4, 32° C.)): ≥ 50 µM
- solubility kinetic ([2]; 37 °C, pH 7.4, aqueous buffer, HBSS (pH 7.4) uptake assay buffer): ≥ 30 µM
- solubility kinetic ([2]; 37 °C, pH 7.4, aqueous buffer, transport buffer for BSEP (pH 7.4)): ≥ 35 µM
- solubility kinetic ([2]; 37 °C, pH 8, aqueous buffer, KH (pH 8.0) uptake assay buffer): ≥ 30 µM

SMILES: Clc1ccc(C2(OCC3OCCO3)c3ccccc3C3=NCCN32)cc1 (stereo not shown) [Compound I-19]
- Cmax in brain relative to plasma ([3]; 3 mg/kg i.p.): 1.8 fold
- Maximum brain concentration (Cmax) of Compound I-19 ([3]; 3 mg/kg i.p.): 1182 nmol/kg
- Tmax of Compound I-19 (plasma and brain) ([3]; 3 mg/kg i.p.): 5 min
- apparent half-life in brain ([3]; 3 mg/kg i.p.): 25.6 min and 25.2 min
- apparent half-life in plasma ([3]; 3 mg/kg i.p.): 25.4 min and 25.2 min
- (fu* AUC0-inf)brain/(fu*AUC0-inf)plasma ratio (Kp, uu) [3, 6]: 2.12
- Brain/plasma AUC0-inf ratio (Kp) [3, 6]: 2.38
- brain to plasma partitioning coefficient (Kp) ([3]; 3 mg/kg i.p., AUC0-inf based): 2.38
- brain to plasma unbound partition coefficient (Kp,uu) ([3]; 3 mg/kg i.p., corrected for unbound fractions): 2.12
- Tmax of Compound A in brain [3, 7]: 45 min
- Tmax of Compound A in plasma [3, 7]: 15 min
- peak brain concentration of Compound A [3, 7]: 60.3 nmol/kg
- peak plasma concentration of Compound A [3, 7]: 48.2 nmol/L
- brain concentration of Compound B [3, 8]: < 3 nmol/kg
- plasma concentration of Compound B [3, 8]: < 1 nM
- Cmax ([3]; brain (expressed as nmol/kg = nmol/L per footnote), 3 mg/kg i.p. Compound I-19, male CD-1 mice): 1180 nM
- AUC0-inf [3, 9]: 0.521 µM·h
- Apparent T1/2 [3, 9]: 25.6 min
- Tmax [3, 9]: 5 min
- fu* AUC0-inf [3, 9]: 0.0172 µM·h
- fu* Cmax [3, 9]: 39.1 nM
- AUC0-inf [3, 10]: 0.218 µM·h
- Apparent T1/2 [3, 10]: 25.4 min
- Cmax [3, 10]: 648 nM
- Tmax [3, 10]: 5 min
- fu* AUC0-inf [3, 10]: 0.00813 µM·h
- fu* Cmax [3, 10]: 24.1 nM
- Cmax ([3]; read-out: Maximum plasma concentration (Cmax) of Compound I-19, 3 mg/kg i.p.): 648 nM
- Inhibition at Highest Test Article Concentration ([4]; 2B6, Bupropion, at 50 μM): 77.2 at 50 μM %
- IC50 ([4]; microsomes): 7.44 µM
- % parent compound remaining ([5]; human red blood cells): time-dependent decrease in the amount of parent compound present
- % parent compound remaining ([5]; human whole blood): time-dependent decrease in the amount of parent compound present
